Results as given in US8623871B2, “Substituted biaryl compounds for inflammation and immune-related uses” (Synta Pharmaceuticals Corp., priority 2006, dated 2014).
Counter-ions that a name gives are not always drawn.

System: IL-2 production
Experiment: Inhibition of IL-2 production in PHA-activated Jurkat cells (ELISA)
Assay type: cell-based
Conditions: Homo sapiens, 20 h, PHA 2.5 μg/mL, IL-2 ELISA
Experimental: Jurkat cells were placed in a 96 well plate (0.5 million cells per well in 1% FBS medium) then a test compound of this invention was added at different concentrations. After 10 minutes, the cells were activated with PHA (final concentration 2.5 μg/mL) and incubated for 20 hours at 37° C. under CO2. The final volume was 200 μL. Following incubation, the cells were centrifuged and the supernatants collected and stored at −70° C. prior to assaying for IL-2 production. A commercial ELISA kit (IL-2 Eli-pair, Diaclone Research, Besancon, France) was used to detect production of IL-2, from which dose response curves were obtained. The IC50 value was calculated as the concentration at which 50% of maximum IL-2 production after stimulation was inhibited versus a non-stimulation control.

Structure (SMILES)	IC50 [nM]
Cc1ccc(-c2ncco2)cc1-c1ccc(NC(=O)[C@@H](N)C(C)C)cc1 (stereo in doubt) [Compound 123, 2-Amino-3-methyl-N-(2′-methyl-5′-oxazol-2-yl-biphenyl-4-yl)-butyramide]	> 500
CC(=O)Nc1ccc(-c2cc(-c3ncco3)ccc2C)cc1 [Compound 1, N-(2′-Methyl-5′-oxazol-2-yl-biphenyl-4-yl)-acetamide]	> 500
CCC(=O)Nc1ccc(-c2cc(-c3ncco3)ccc2C)cc1 [Compound 2, N-(2′-Methyl-5′-oxazol-2-yl-biphenyl-4-yl)-propionamide]	50 to 100
CCCC(=O)Nc1ccc(-c2cc(-c3ncco3)ccc2C)cc1 [Compound 3, N-(2′-Methyl-5′-oxazol-2-yl-biphenyl-4-yl)-butyramide]	< 20
Cc1ccc(-c2ncco2)cc1-c1ccc(NC(=O)C(C)C)cc1 [Compound 4, N-(2′-Methyl-5′-oxazol-2-yl-biphenyl-4-yl)-isobutyramide]	< 20
Cc1ccc(-c2ncco2)cc1-c1ccc(NC(=O)C2CC2)cc1 [Compound 5, Cyclopropanecarboxylic acid (2′-methyl-5′-oxazol-2-yl-biphenyl-4-yl)-amide]	50 to 100
Cc1ccc(-c2ncco2)cc1-c1ccc(NC(=O)C2CCC2)cc1 [Compound 6, Cyclobutanecarboxylic acid (2′-methyl-5′-oxazol-2-yl-biphenyl-4-yl)-amide]	20 to 50
Cc1ccc(-c2ncco2)cc1-c1ccc(NC(=O)C2CCCCN2C)cc1 (centres unmarked) [Compound 8, 1-Methyl-piperidine-2-carboxylic acid (2′-methyl-5′-oxazol-2-yl-biphenyl-4-yl)-amide]	100 to 500
CCC(C(=O)Nc1ccc(-c2cc(-c3ncco3)ccc2C)cc1)N(C)C (centres unmarked) [Compound 9, 2-Dimethylamino-N-(2′-methyl-5′-oxazol-2-yl-biphenyl-4-yl)-butyramide Hydrochloride]	> 500
Cc1ccc(-c2ncco2)cc1-c1ccc(NC(=O)C(N)CC(C)C)cc1 (centres unmarked) [Compound 10, 2-Amino-4-methyl-pentanoic acid (2′-methyl-5′-oxazol-2-yl-biphenyl-4-yl)-amide]	> 500
Cc1ccc(-c2ncco2)cc1-c1ccc(NC(=O)CN)cc1 [Compound 11, 2-Amino-N-(2′-methyl-5′-oxazol-2-yl-biphenyl-4-yl)-acetamide]	> 1000
Cc1ccc(-c2ncco2)cc1-c1ccc(NC(=O)Cc2ccc(Cl)cc2)cc1 [Compound 35, 2-(4-Chloro-phenyl)-N-(2′-methyl-5′-oxazol-2-yl-biphenyl-4-yl)-acetamide]	100 to 500
Cc1ccc(-c2ncco2)cc1-c1ccc(NC(=O)/C=C/c2ccccc2)cc1 [Compound 48, N-(2′-Methyl-5′-oxazol-2-yl-biphenyl-4-yl)-3-phenyl-acrylamide]	100 to 500
Cc1ccc(-c2ncco2)cc1-c1ccc(NC(=O)C2CCCCC2)cc1 [Compound 106, N-(2′-methyl-5′-(oxazol-2-yl)biphenyl-4-yl)cyclohexanecarboxamide]	< 20
O=C(Nc1ccc(-c2cc(C(F)(F)F)ccc2Cl)cc1)C1CCCCC1 [Compound 107, N-(2′-chloro-5′-(trifluoromethyl)biphenyl-4-yl)cyclohexanecarboxamide]	< 20
O=C(Nc1ccc(-c2cc(C(F)(F)F)ccc2Cl)cc1)C1CCCC1 [Compound 108, N-(2′-chloro-5′-(trifluoromethyl)biphenyl-4-yl)cyclopentanecarboxamide]	20 to 50
Cc1ccc(-c2ncco2)cc1-c1ccc(NC(=S)Cc2ccc(F)cc2F)cc1 [Compound 124, 2-(2,4-Difluoro-phenyl)-N-(2′-methyl-5′-oxazol-2-yl-biphenyl-4-yl)-thioacetamide]	50 to 100
O=C(Nc1ccc(-c2cc(C(F)(F)F)ccc2Cl)cc1)C1CC1 [Compound 125, N-(2′-chloro-5′-(trifluoromethyl)biphenyl-4-yl)cyclopropanecarboxamide]	100 to 500

Structure (SMILES)	IC50 [nM]
O=C(Nc1ccc(-c2cc(C(F)(F)F)ccc2Cl)cc1)C1CCCN1 (centres unmarked) [Compound 126, N-(2′-chloro-5′-(trifluoromethyl)biphenyl-4-yl)pyrrolidine-2-carboxamide]	> 1000
O=C(Nc1ccc(-c2cc(C(F)(F)F)ccc2Cl)cc1)C1CC=CCC1 (centres unmarked) [Compound 127, N-(2′-chloro-5′-(trifluoromethyl)biphenyl-4-yl)cyclohex-3-enecarboxamide]	50 to 100
CC1CCCCC1C(=O)Nc1ccc(-c2cc(C(F)(F)F)ccc2Cl)cc1 (centres unmarked) [Compound 128, N-(2′-chloro-5′-(trifluoromethyl)biphenyl-4-yl)-2-methylcyclohexanecarboxamide]	100 to 500
O=C(Nc1ccc(-c2cc(C(F)(F)F)ccc2Cl)cc1)C1CCNCC1 [Compound 129, N-(2′-chloro-5′-(trifluoromethyl)biphenyl-4-yl)piperidine-4-carboxamide]	> 1000
O=C(Nc1ccc(-c2cc(C(F)(F)F)ccc2Cl)cc1)C1CC2CCC1C2 (centres unmarked) [Compound 130, N-(2′-chloro-5′-(trifluoromethyl)biphenyl-4-yl)bicyclo[2.2.1]heptane-2-carboxamide]	100 to 500
O=C(Nc1ccc(-c2cc(C(F)(F)F)ccc2Cl)cc1)C1CC2C=CC1C2 (centres unmarked) [Compound 132, N-(2′-chloro-5′-(trifluoromethyl)biphenyl-4-yl)bicyclo[2.2.1]hept-5-ene-2-carboxamide]	> 500
CN1CCC(C(=O)Nc2ccc(-c3cc(C(F)(F)F)ccc3Cl)cc2)CC1 [Compound 133, N-(2′-chloro-5′-(trifluoromethyl)biphenyl-4-yl)-1-methylpiperidine-4-carboxamide]	> 1000
CN1CCCC1C(=O)Nc1ccc(-c2cc(C(F)(F)F)ccc2Cl)cc1 (centres unmarked) [Compound 134, N-(2′-chloro-5′-(trifluoromethyl)biphenyl-4-yl)-1-methylpyrrolidine-2-carboxamide]	> 1000
CCCCNCc1ccc(-c2cc(-c3ncco3)ccc2C)cc1 [Compound 135, N-((2′-methyl-5′-(oxazol-2-yl)biphenyl-4-yl)methyl)butan-1-amine]	> 1000
C=CCNCc1ccc(-c2cc(-c3ncco3)ccc2C)cc1 [Compound 136, N-((2′-methyl-5′-(oxazol-2-yl)biphenyl-4-yl)methyl)prop-2-en-1-amine]	> 1000
CCCNCc1ccc(-c2cc(-c3ncco3)ccc2C)cc1 [Compound 137, N-((2′-methyl-5′-(oxazol-2-yl)biphenyl-4-yl)methyl)propan-1-amine]	> 1000
CCCCNc1ccc(-c2cc3c(cc2C)OCO3)cc1 [Compound 141, N-butyl-4-(6-methylbenzo[d][1,3]dioxol-5-yl)aniline]	100 to 500
CCCCNc1ccc(-c2cc(C(=O)OC)ccc2C)cc1 [Compound 142, methyl 4′-(butylamino)-6-methylbiphenyl-3-carboxylate]	100 to 500
Cc1ccc(-c2ncco2)cc1-c1ccc(NCC(C)C)cc1 [Compound 144, N-isobutyl-2′-methyl-5′-(oxazol-2-yl)biphenyl-4-amine]	100 to 500
Cc1ccc(-c2ncco2)cc1-c1ccc(NCCO)cc1 [Compound 145, 2-(2′-methyl-5′-(oxazol-2-yl)biphenyl-4-ylamino)ethanol]	> 1000
Cc1ccc(-c2ncco2)cc1-c1ccc(NC(=O)N2CCN(C)CC2)cc1 [Compound 146, 4-Methyl-piperazine-1-carboxylic acid (2′-methyl-5′-oxazol-2-yl-biphenyl-4-yl)-amide]	> 1000
CCOC(=O)CNc1ccc(-c2cc(-c3ncco3)ccc2C)cc1 [Compound 147, ethyl 2-(2′-methyl-5′-(oxazol-2-yl)biphenyl-4-ylamino)acetate]	> 1000
